Legend:
Assay type in all cases: in vivo
[1] = test system: barnyardgrass (Echinochloa crus-galli); test: Test B postemergence; details: 13 to 15 days
In short: (§1)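 Post-treatment, species sat 13–15 days under greenhouse conditions before visual scoring against controls, 0 (no effect) through 100 (complete control). Application preemergence to sown seeds or postemergence at 1- to 4-leaf stage, using a non-phytotoxic solvent/surfactant formulation.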

corn (Zea mays) [2] = test: Test B postemergence; details: 13 to 15 days
In short: as §1

[3] = test system: wheat (Triticum aestivum); test: Test B postemergence; details: 13 to 15 days
In short: as §1

wild oat (Avena fatua) = test: Test B postemergence; details: 13 to 15 days
In short: as §1

Nightshade [4] = test: Test C preemergence
corn (Zea mays) [5] = test: Test C preemergence; details: for Plant response rating (0 to 100), Corn: visual evaluation after 12 to 14 days
In short: (§2)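 Pre- and postemergence treatments used a non-phytotoxic solvent/surfactant formulation; post-treated plants measured 2 to 18 cm. Greenhouse hold 12–14 d; % control estimated visually relative to controls.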

[6] = test system: johnsongrass (Sorghum halepense); test: Test C preemergence; details: for Plant response rating (0 to 100), Johnsongrass: visual evaluation after 12 to 14 days
In short: as §2

kochia (Kochia scoparia) = test: Test C preemergence; details: for Plant response rating (0 to 100), Kochia: visual evaluation after 12 to 14 days
In short: as §2

[7] = test system: lambsquarters (Chenopodium album); test: Test C preemergence; details: for Plant response rating (0 to 100), Lambsquarters: visual evaluation after 12 to 14 days
In short: as §2

[8] = test system: pigweed (Amaranthus retroflexus); test: Test C preemergence; details: for Plant response rating (0 to 100), Pigweed: visual evaluation after 12 to 14 days
In short: as §2

soybean (Glycine max) = test: Test C preemergence; details: for Plant response rating (0 to 100), Soybean: visual evaluation after 12 to 14 days
In short: as §2

[9] = test system: woolly cupgrass (Eriochloa villosa); test: Test C preemergence; details: for Plant response rating (0 to 100), Cupgrass, Woolly: visual evaluation after 12 to 14 days
In short: as §2

[10] = test system: yellow nutsedge (Cyperus esculentus); test: Test C preemergence; details: for Plant response rating (0 to 100), Nutsedge: visual evaluation after 12 to 14 days
In short: as §2

[11] = test system: barnyardgrass (Echinochloa crus-galli); test: Test C flooded paddy test; details: for Barnyardgrass plant response rating: Flooded Paddy, scale 0 to 100, 0 no effect, 100 complete control; for Plant response rating, Barnyardgrass: flooded paddy test, scale 0 to 100 (0 no effect, 100 complete control)
In short: (§3)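 Flooded paddy, 2-leaf stage at treatment. Readout: visual % control vs untreated, 0–100, at 12–14 d in greenhouse.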

[12] = test system: duck salad (Heteranthera limosa); test: Test C flooded paddy test; details: for Ducksalad plant response rating: Flooded Paddy, scale 0 to 100, 0 no effect, 100 complete control; for Plant response rating, Ducksalad: flooded paddy test, scale 0 to 100 (0 no effect, 100 complete control)
In short: as §3

rice (Oryza saliva) = test: Test C flooded paddy test; details: for Rice plant response rating: Flooded Paddy, scale 0 to 100, 0 no effect, 100 complete control; for Plant response rating, Rice: flooded paddy test, scale 0 to 100 (0 no effect, 100 complete control)
In short: as §3

[13] = test system: smallflower flatsedge (Cyperus difformis); test: Test C flooded paddy test; details: for Flatsedge plant response rating: Flooded Paddy, scale 0 to 100, 0 no effect, 100 complete control; for Plant response rating, Flatsedge: flooded paddy test, scale 0 to 100 (0 no effect, 100 complete control)
In short: as §3

Nightshade [14] = test: Test C preemergence; details: visual evaluation after 12 to 14 days
Sunflower = test: Test C preemergence; details: scale 0 to 100, 0 no effect, 100 complete control
[15] = Rate 125 g/ha, scale 0 (no effect) to 100 (complete control)
[16] = Rate 500 g/ha, scale 0 to 100, 0 is no effect, 100 is complete control
[17] = Rate 62 g/ha; scale 0 to 100, 0 no effect, 100 complete control
[18] = Rate 125 g/ha, scale 0 to 100, 0 no effect, 100 complete control
[19] = Preemergence, Rate 500 g/ha, scale 0 to 100
[20] = Rate 62 g/ha, scale 0 to 100, 0 no effect, 100 complete control
[21] = preemergence, Rate 125 g/ha, scale 0 to 100, 0 no effect, 100 complete control
[22] = preemergence, Rate 250 g/ha, scale 0 to 100, 0 no effect, 100 complete control

O=C1C(n2ccc(C3CCC3)n2)SCN1c1cccc(OC(F)F)c1 (centres unmarked) [Compound 45]
Plant response rating, Barnyardgrass [1, 15]: 30
Plant response rating, Barnyardgrass [1, 16]: 100
Plant response rating, Corn (corn (Zea mays) [2]; [15]): 0
Plant response rating, Corn (corn (Zea mays) [2]; [16]): 0
Plant response rating, Wheat [3, 15]: 0
Plant response rating, Wheat [3, 16]: 0
Plant response rating, Wild Oat (wild oat (Avena fatua); [15]): 0
Plant response rating, Wild Oat (wild oat (Avena fatua); [16]): 0
Plant response rating, Nightshade (Nightshade [4]; [17]): 0
Plant response rating, Nightshade (Nightshade [4]; [18]): 0
Plant response rating, Nightshade (Nightshade [4]; Rate 500 g/ha, scale 0 to 100): 40
Plant response rating, Corn (corn (Zea mays) [5]; [19]): 0
Plant response rating, Corn (corn (Zea mays) [5]; [20]): 0
Plant response rating (0 to 100), Corn (corn (Zea mays) [5]; preemergence, Rate 250 g/ha): 0
Plant response rating, Corn (corn (Zea mays) [5]; [21]): 0
Plant response rating, Johnsongrass [6, 19]: 100
Plant response rating, Johnsongrass [6, 20]: 0
Plant response rating (0 to 100), Johnsongrass ([6]; preemergence, Rate 250 g/ha): 50
Plant response rating, Johnsongrass [6, 21]: 0
Plant response rating, Kochia (kochia (Kochia scoparia); [19]): 100
Plant response rating, Kochia (kochia (Kochia scoparia); [20]): 20
Plant response rating (0 to 100), Kochia (kochia (Kochia scoparia); preemergence, Rate 250 g/ha): 90
Plant response rating, Kochia (kochia (Kochia scoparia); [21]): 60
Plant response rating, Lambsquarters [7, 19]: 100
Plant response rating, Lambsquarters [7, 20]: 60
Plant response rating (0 to 100), Lambsquarters ([7]; preemergence, Rate 250 g/ha): 100
Plant response rating, Lambsquarters [7, 21]: 100
Plant response rating, Pigweed [8, 19]: 30
Plant response rating, Pigweed [8, 20]: 0
Plant response rating (0 to 100), Pigweed ([8]; preemergence, Rate 250 g/ha): 0
Plant response rating, Pigweed [8, 21]: 0
Plant response rating, Soybean (soybean (Glycine max); [19]): 0
Plant response rating, Soybean (soybean (Glycine max); [20]): 0
Plant response rating (0 to 100), Soybean (soybean (Glycine max); preemergence, Rate 250 g/ha): 0
Plant response rating, Soybean (soybean (Glycine max); [21]): 0
Plant response rating, Cupgrass, Woolly [9, 19]: 100
Plant response rating, Cupgrass, Woolly [9, 20]: 0
Plant response rating (0 to 100), Cupgrass, Woolly ([9]; preemergence, Rate 250 g/ha): 70
Plant response rating, Cupgrass, Woolly [9, 21]: 30
Plant response rating, Nutsedge [10, 19]: 100
Plant response rating (0 to 100), Nutsedge ([10]; preemergence, Rate 250 g/ha): 60
Plant response rating, Nutsedge [10, 21]: 0
Barnyardgrass plant response rating ([11]; Rate 250 g/ha): 100
Barnyardgrass plant response rating ([11]; Rate 500 g/ha): 100
Plant response rating, Barnyardgrass ([11]; Rate 62 g/ha): 70
Plant response rating, Barnyardgrass ([11]; Rate 125 g/ha): 100
Ducksalad plant response rating ([12]; Rate 250 g/ha): 100
Ducksalad plant response rating ([12]; Rate 500 g/ha): 100
Plant response rating, Ducksalad ([12]; Rate 62 g/ha): 50
Plant response rating, Ducksalad ([12]; Rate 125 g/ha): 80
Rice plant response rating (rice (Oryza saliva); Rate 250 g/ha): 70
Rice plant response rating (rice (Oryza saliva); Rate 500 g/ha): 100
Plant response rating, Rice (rice (Oryza saliva); Rate 62 g/ha): 0
Plant response rating, Rice (rice (Oryza saliva); Rate 125 g/ha): 50
Flatsedge plant response rating ([13]; Rate 250 g/ha): 100
Flatsedge plant response rating ([13]; Rate 500 g/ha): 100
Plant response rating, Flatsedge ([13]; Rate 62 g/ha): 90
Plant response rating, Flatsedge ([13]; Rate 125 g/ha): 100
Plant response rating (0 to 100), Nightshade (Nightshade [14]; Rate 250 g/ha): 0
Plant response rating, Sunflower (Sunflower; Rate 125 g/ha): 20

CC(C)Oc1cccc(N2CCC(n3ccc(C(C)C)n3)C2=O)c1 (centres unmarked) [Compound 82]
Plant response rating, Barnyardgrass [1, 15]: 0
Plant response rating, Barnyardgrass [1, 16]: 0
Plant response rating, Corn (corn (Zea mays) [2]; [15]): 0
Plant response rating, Corn (corn (Zea mays) [2]; [16]): 0
Plant response rating, Wheat [3, 15]: 0
Plant response rating, Wheat [3, 16]: 0
Plant response rating, Wild Oat (wild oat (Avena fatua); [15]): 0
Plant response rating, Wild Oat (wild oat (Avena fatua); [16]): 0
Plant response rating, Nightshade (Nightshade [4]; [17]): 0
Plant response rating, Nightshade (Nightshade [4]; Rate 125 g/ha; scale 0 to 100, 0 no effect, 100 complete control): 10
Plant response rating, Nightshade (Nightshade [4]; Rate 250 g/ha, scale 0 to 100, 0 no effect, 100 complete control): 30
Plant response rating, Corn (corn (Zea mays) [5]; [20]): 0
Plant response rating, Corn (corn (Zea mays) [5]; [18]): 20
Plant response rating (0 to 100), Corn (corn (Zea mays) [5]; preemergence, Rate 250 g/ha): 10
Plant response rating (0 to 100), Corn (corn (Zea mays) [5]; preemergence, Rate 500 g/ha): 30
Plant response rating, Johnsongrass [6, 20]: 40
Plant response rating, Johnsongrass [6, 18]: 50
Plant response rating (0 to 100), Johnsongrass ([6]; preemergence, Rate 250 g/ha): 50
Plant response rating (0 to 100), Johnsongrass ([6]; preemergence, Rate 500 g/ha): 60
Plant response rating, Kochia (kochia (Kochia scoparia); [20]): 0
Plant response rating, Kochia (kochia (Kochia scoparia); [18]): 90
Plant response rating (0 to 100), Kochia (kochia (Kochia scoparia); preemergence, Rate 250 g/ha): 100
Plant response rating (0 to 100), Kochia (kochia (Kochia scoparia); preemergence, Rate 500 g/ha): 100
Plant response rating, Lambsquarters [7, 20]: 100
Plant response rating, Lambsquarters [7, 18]: 100
Plant response rating (0 to 100), Lambsquarters ([7]; preemergence, Rate 500 g/ha): 100
Plant response rating, Lambsquarters [7, 22]: 100
Plant response rating, Pigweed [8, 18]: 70
Plant response rating (0 to 100), Pigweed ([8]; preemergence, Rate 500 g/ha): 0
Plant response rating, Pigweed [8, 22]: 100
Plant response rating, Soybean (soybean (Glycine max); [18]): 10
Plant response rating (0 to 100), Soybean (soybean (Glycine max); preemergence, Rate 500 g/ha): 60
Plant response rating, Soybean (soybean (Glycine max); [22]): 30
Plant response rating, Cupgrass, Woolly [9, 20]: 70
Plant response rating, Cupgrass, Woolly [9, 18]: 90
Plant response rating (0 to 100), Cupgrass, Woolly ([9]; preemergence, Rate 250 g/ha): 90
Plant response rating (0 to 100), Cupgrass, Woolly ([9]; preemergence, Rate 500 g/ha): 100
Plant response rating, Nutsedge [10, 20]: 0
Plant response rating, Nutsedge [10, 18]: 0
Plant response rating (0 to 100), Nutsedge ([10]; preemergence, Rate 500 g/ha): 40
Plant response rating, Nutsedge [10, 22]: 10
Barnyardgrass plant response rating ([11]; Rate 250 g/ha): 100
Barnyardgrass plant response rating ([11]; Rate 500 g/ha): 100
Plant response rating, Barnyardgrass ([11]; Rate 62 g/ha): 30
Plant response rating, Barnyardgrass ([11]; Rate 125 g/ha): 60
Ducksalad plant response rating ([12]; Rate 250 g/ha): 90
Ducksalad plant response rating ([12]; Rate 500 g/ha): 100
Plant response rating, Ducksalad ([12]; Rate 62 g/ha): 20
Plant response rating, Ducksalad ([12]; Rate 125 g/ha): 30
Rice plant response rating (rice (Oryza saliva); Rate 250 g/ha): 60
Rice plant response rating (rice (Oryza saliva); Rate 500 g/ha): 80
Plant response rating, Rice (rice (Oryza saliva); Rate 62 g/ha): 0
Plant response rating, Rice (rice (Oryza saliva); Rate 125 g/ha): 30
Flatsedge plant response rating ([13]; Rate 250 g/ha): 90
Flatsedge plant response rating ([13]; Rate 500 g/ha): 100
Plant response rating, Flatsedge ([13]; Rate 62 g/ha): 90
Plant response rating, Flatsedge ([13]; Rate 125 g/ha): 90
Plant response rating (0 to 100), Nightshade (Nightshade [14]; Rate 500 g/ha): 100
Plant response rating, Sunflower (Sunflower; Rate 250 g/ha): 70

Reference: patent US7138361B2, “Herbicidal heterocycles” (E. I. du Pont de Nemours and Company, priority 2000, dated 2006)
